Reference: patent US5451518A, “Purified human ceramide-activated protein kinase” (Sloan-Kettering Institute for Cancer Research, priority 1992, dated 1995)
Entries after “also recorded” stand apart in the source; their conditions may differ. Where two headings read alike, the source gives them in different places.

How the values were obtained:
HL-60 cells [1] = conditions: cited from earlier work
HL-60 cells [2] = conditions: cited from earlier work; remark: listed apart in the source
[3] = system: ceramide (HL-60 nuclei-free supernate); assay: Ceramide content in HL-60 cell-free system; format: biochemical, human
Procedure: (§1) HL-60 cells were grown in RPMI 1640 medium supplemented with 10% bovine calf serum and amino acids (4). To measure sphingomyelin, cells were resuspended (1×10^6 ml^-1), labeled for 48 hours in medium with [^3 H]choline (1 μCi ml^-1) (57), in serum-free medium containing bovine insulin (5 μg ml^-1) and human transferrin (5 μg ml^-1). After 3 hours, cells were resuspended (150×10^6 ml^-1) in homogenization buffer (50 mM NaF, 5 mM EGTA, and 25 mM Hepes, pH 7.4), disrupted at 4° C. with 150 strokes of a tight-fitting Dounce homogenizer (Fisher Scientific, Pittsburgh, Pa.), and centrifuged for 5 minutes (500 g). The nuclei-free supernate was first incubated for 5 minutes at 4° C. with 30 nM human TNF-α (Genentech, South San Francisco, Calif.) or diluent ( 50 mMHepes, pH 7.4). At time zero, 15 μl of supernate (112 μg per incubation) were added to a reaction mixture containing 30 μl of 25 mM Hepes, pH 7.4, 30 μl of 750 μM ATP, and 75 μl of reaction buffer (50 mM Hepes, pH 7.4 and 20 mM MgCl2) at 22° C. The reaction was terminated with CHCl3 :CH3 OH:HCl (100:100:1, v/v/v) (3, 4, 13) and 150 μl of balanced salt solution (135 mM NaCl, 4.5 mM KCl, 1.5 mM CaCl2, 0.5 mM MgCl2, 5.6 mM glucose, and 10 mM Hepes, pH 7.2) containing 20 mM EDTA. Lipids in the organic phase extract were subjected to alkaline methanolysis to remove glycerophospholipids (4). Sphingomyelin recovery in the nuclei-free supernate was 93% of that in intact cells. A measure of 10^6 cell equivalents of supernate contained 50 μg of protein. Sphingomyelin was resolved by thin-layer chromatograhy (TLC) with CHCl3 :CH3 OH:CH3 COOH:H2 O (25:15:4:1.5 ) as solvent, identified by iodine vapor staining and quantified by liquid scintillation spectrometry (1, 8, 56). Ceramide was quantified with the diacyglycerol kinase reaction (4, 57). Values (mean) are derived from triplicate determinations from one experiment representative of three similar studies for sphingomyelin and four similar studies for ceramide.
(§2) The binding of TNF-α to its receptor is detectable within 2 minutes and maximal by 5 to 10 minutes at 4° C. in membranes derived from HL-60 cells (41). Therefore, supernates from HL-60 cells, collected after a low-speed centrifugation to remove nuclei, were first incubated with TNF-α for 5 minutes at 4° C. to allow the formation of TNF-receptor complexes. Thereafter, reactions were initiated by warming supernates to 22° C. in a reaction mixture containing adenosine triphosphate (ATP) and Mg^2+ at pH 7.4.
These conditions were adopted to allow for activation of neutral sphingomyelinase (1, 42). […] Under the same conditions, ceramide increased quantitatively from 1.8±0.3 to 4.0±0.5 nmol mg^-1 (FIG. 9B). […]

[4] = system: phosphatidyl-choline, lysophosphatidylcholine, sphingosylphosphorylcholine, 1,2-diacylglycerol; assay: Other choline-containing lipids and diacylglycerol in HL-60 cell-free system; format: biochemical, human; conditions: TNF-α
[5] = system: ceramide-activated protein kinase; assay: Ceramide-activated protein kinase activity in HL-60 cell-free system; format: biochemical, human
Procedure: HL-60 cells were incubated in serum-free medium and homogenized (as in FIGS. 9A and 9B). […] ATP (750 μM, 4000 dpm pmol^-1), and 75 μl of reaction buffer (40). The reaction was terminated by adding 30 μl of 0.5M ATP in 90% formic acid. Phosphorylated peptide was first run on a C18 Sep-Pak cartridge, then resolved by C18 reverse-phase HPLC (Waters, Milford, Mass.), with a linear gradient of acetonitrile. The peptide eluted at 30% acetonitrile, as determined by monitoring Cerenkov radiation in 1-ml fractions. Background activity was subtracted from each point. (FIG. 10A) Kinetics of TNF-α (30 nM)-stimulated EGFR peptide phosphorylation. Values (mean) represent data from four experiments. (FIG. 10B) Concentration dependence of EGFR peptide phosphorylation at 5 minutes of stimulation with TNF-α (0.01 to 30 nM). Values (mean) represent data derived from duplicate points in two experiments. The SEM of the values in (FIG. 10A) was 18% and the mean range of values in (FIG. 10B) was 3%.
Peptide phosphorylation was measured as in FIGS. 10A nad 10B. Control value represents peptide phosphorylation in the absence of phospholipases or TNF-α. Values (mean ± SEM) represent data derived from duplicate samples in three experiments. *P<0.001 compared to control.
as §2
The effect of TNF-α on ceramide-activated protein kinase activity was assessed. […] For studies assessing the effect of TNFα in broken cell preparations, nuclei-free supernates were incubated under conditions sufficient for stimulation of neutral sphingomyelinase in a reaction mixture that also contained EGFR peptide and γ-^32 P-labeled ATP. Phosphorylated peptide was resolved by high-performance liquid chromatograph (HPLC) and quantified by Cerenkov counting (40). Kinase activity was calculated from the specific activity of [γ-^32 P] ATP and incorporation of ^32 P into EGFR peptide. Background activity was subtracted from each point. […] If the initial incubation with TNF-α at 4° C. was omitted and TNF was added directly to the reaction mixture at 22° C., the reaction was delayed. […] TNF-α enhanced kinase activity in a concentration-dependent manner at 5 minutes (FIG. 10B). […] This is similar to the ED50 of 200 pM for stimulation of ceramide-activated protein kinase by TNF-α in intact cells (40). TNF-α enhanced kinase activity in a total of 20 separate studies.
Control activity reflects several TNF-α-independent protein kinases that are known to phosphorylate EGFR peptide on Thr^669.

[6] = system: ceramide-activated protein kinase; conditions: cited from earlier work
[7] = system: ceramide-activated protein kinase
[8] = system: sphingomyelin (HL-60 nuclei-free supernate); assay: Sphingomyelin content in HL-60 cell-free system; format: biochemical, human
Procedure: as §1, §2
These conditions were adopted to allow for activation of neutral sphingomyelinase (1, 42). Under these conditions, TNF-α induced a time- and concentration-dependent reduction in sphingomyelin content (FIG. 9A). the effect of TNF-α was evident at 1 minute and maximal by 7.5 minutes. Sphingomyelin concentrations decreased 27% from a control concentration of 10.4±0.5 (mean ± SEM) to 7.6±0.2 nmol per milligram (nmol mg^-1) of supernate protein (P<0.001). […] Concentrations of TNF-α of 300 pM were ineffective, with a maximal effect at 3 nMTNF-α [effective dose (ED50)≈500 pM]. Under the same conditions, ceramide increased quantitatively from 1.8±0.3 to 4.0±0.5 nmol mg^-1 (FIG. 9B). This effect was detectable at 1 minute (P<0.001) and maximal by 7.5 minutes. Thus, 2.8 nmol of sphingomyelin per milligram of supernate protein were lost for each 2.2 nmol of ceramide per milligram of supernate protein that was generated. […] Other choline-containing lipids, including phosphatidyl-choline, lysophosphatidylcholine, sphingosylphosphorylcholine(1), and 1,2-diacylglycerol were not affected by TNF-α.

## TNF-α
HL-60 cells [1]; also for monocyte differentiation
  maximally effective concentration for generation of ceramide: 30 nM
HL-60 cells [1]
  sphingomyelin degradation to ceramide / ceramide level (in words): increase cellular levels of ceramide within minutes; also recorded: activates a neutral sphingomyelinase to generate ceramide
HL-60 cells [1]; listed as Tumor necrosis factor (TNF) α
  sphingomyelin degradation to ceramide / ceramide level (in words): stimulate sphingomyelin degradation to ceramide
HL-60 cells [2]
  monocytic differentiation: induce monocytic differentiation
[3]; TNF-α
  ceramide generated: 2.2 nmol per milligram of supernat
  time to maximal ceramide increase: ≤ 7.5 min
[3]; TNF-α, P<0.001
  time at which ceramide increase was detectable: 1 min
[3]; from 1.8±0.3
  ceramide concentration after TNF-α: 4.0 ± 0.5 nmol/mg
[4]
  effect on phosphatidyl-choline, lysophosphatidylcholine, sphingosylphosphorylcholine and 1,2-diacylglycerol: not affected
[5]; TNF added directly at 22° C., no 4° C. incubation
  delay before enhancement of kinase activity: 2 min
[5]; TNF-α 30 nM
  duration of stimulation of kinase activity: at least 10 minutes
  time at which stimulation of kinase activity was evident: evident by i minute
[5]; TNF-α 30 nM, GTP, GTP-γ-S 0.25 to 200 μM, SMase 1×10^-3 U ml^-1, 5 minutes, phospholipases 40- to 400-fold higher
  effect on kinase activity (in words): enhanced kinase activity (P<0.001)
[5]; TNF-α, 5 minutes
  concentration for maximal effect: 3 nM
  effective concentration: 10 pM
[5]; TNF-α, 5 minutes, cell-free
  ED50 for kinase activity: ≈ 300 pM
[6]; intact HL-60 cells
  effect on kinase activity (in words): rapidly increased; also recorded: similarly enhanced kinase activity in intact cells
[6]; intact cells
  ED50 for stimulation of ceramide-activated protein kinase: 0.2 nM
[7]; TNF-α 3 pM, 60 minutes
  increase in kinase activity: 1.1 -fold of control
[7]; TNF-α 30 nM, 5 minutes
  increase in kinase activity: 1.5 -fold of control
[7]; TNF-α 30 nM, 60 minutes
  maximal effect on kinase activity: 1.8 -fold of control
[7]; TNF-α 30 nM, 2 hours
  increase in kinase activity: 2.2 -fold of control
[7]; TNF-α 30 nM, 2 hours, listed as TNF
  increase in kinase activity: 2 -fold of control
[7]; TNF-α, 60 minutes, intact cells
  ED50 for kinase activity: ≈ 200 pM
[8]; TNF-α
  concentration for maximal effect on sphingomyelin: 3 nM
  effective dose (ED50), sphingomyelin reduction: ≈ 500 pM
  sphingomyelin lost: 2.8 nmol per milligram of supernat
  time at which sphingomyelin reduction was evident: 1 min
  time to maximal sphingomyelin reduction: ≤ 7.5 min
[8]; TNF-α, P<0.001
  decrease in sphingomyelin concentration: 27%
[8]; mean ± SEM, control 10.4±0.5, P<0.001
  sphingomyelin concentration after TNF-α: 7.6±0.2 nmol per milligram (nmol mg^-1) of supernate protein
